According to PMC6939882 (Molecular microbiology, 2017):

Columns and labels:
Amy13K ΔCBMa-e = molecular target: T1, Amy13K ΔCBMa-e (Agathobacter rectalis, UniProt A0ABF7PGZ5); test: isothermal titration calorimetry of hydrolysis; type: biochemical; settings: 37 °C; only kcat/KM printed
T1 sequence (A0ABF7PGZ5 621-1364 limits assumed): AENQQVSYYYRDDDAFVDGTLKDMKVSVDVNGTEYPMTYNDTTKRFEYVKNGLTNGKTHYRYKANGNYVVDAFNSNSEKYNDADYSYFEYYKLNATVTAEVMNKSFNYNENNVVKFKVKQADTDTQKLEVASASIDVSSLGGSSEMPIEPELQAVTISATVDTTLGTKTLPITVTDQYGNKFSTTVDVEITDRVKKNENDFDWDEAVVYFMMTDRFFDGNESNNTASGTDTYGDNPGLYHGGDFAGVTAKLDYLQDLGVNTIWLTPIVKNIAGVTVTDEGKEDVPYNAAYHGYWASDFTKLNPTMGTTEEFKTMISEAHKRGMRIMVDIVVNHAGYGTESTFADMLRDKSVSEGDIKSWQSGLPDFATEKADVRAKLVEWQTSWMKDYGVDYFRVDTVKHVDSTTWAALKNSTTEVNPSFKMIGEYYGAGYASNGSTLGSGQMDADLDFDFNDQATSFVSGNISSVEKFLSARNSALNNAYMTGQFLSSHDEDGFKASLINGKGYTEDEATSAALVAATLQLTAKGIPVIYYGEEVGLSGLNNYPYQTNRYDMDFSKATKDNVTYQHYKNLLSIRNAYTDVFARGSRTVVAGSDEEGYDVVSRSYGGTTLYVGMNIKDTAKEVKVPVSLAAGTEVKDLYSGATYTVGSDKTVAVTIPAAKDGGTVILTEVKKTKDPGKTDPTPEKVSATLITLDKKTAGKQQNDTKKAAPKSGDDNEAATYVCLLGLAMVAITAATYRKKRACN

Amy13K WT = molecular target: T2, Amy13K WT (Agathobacter rectalis, UniProt A0ABF7PGZ5); test: isothermal titration calorimetry of hydrolysis; type: biochemical; settings: 37 °C; only kcat/KM printed
T2 sequence (A0ABF7PGZ5 44-1364): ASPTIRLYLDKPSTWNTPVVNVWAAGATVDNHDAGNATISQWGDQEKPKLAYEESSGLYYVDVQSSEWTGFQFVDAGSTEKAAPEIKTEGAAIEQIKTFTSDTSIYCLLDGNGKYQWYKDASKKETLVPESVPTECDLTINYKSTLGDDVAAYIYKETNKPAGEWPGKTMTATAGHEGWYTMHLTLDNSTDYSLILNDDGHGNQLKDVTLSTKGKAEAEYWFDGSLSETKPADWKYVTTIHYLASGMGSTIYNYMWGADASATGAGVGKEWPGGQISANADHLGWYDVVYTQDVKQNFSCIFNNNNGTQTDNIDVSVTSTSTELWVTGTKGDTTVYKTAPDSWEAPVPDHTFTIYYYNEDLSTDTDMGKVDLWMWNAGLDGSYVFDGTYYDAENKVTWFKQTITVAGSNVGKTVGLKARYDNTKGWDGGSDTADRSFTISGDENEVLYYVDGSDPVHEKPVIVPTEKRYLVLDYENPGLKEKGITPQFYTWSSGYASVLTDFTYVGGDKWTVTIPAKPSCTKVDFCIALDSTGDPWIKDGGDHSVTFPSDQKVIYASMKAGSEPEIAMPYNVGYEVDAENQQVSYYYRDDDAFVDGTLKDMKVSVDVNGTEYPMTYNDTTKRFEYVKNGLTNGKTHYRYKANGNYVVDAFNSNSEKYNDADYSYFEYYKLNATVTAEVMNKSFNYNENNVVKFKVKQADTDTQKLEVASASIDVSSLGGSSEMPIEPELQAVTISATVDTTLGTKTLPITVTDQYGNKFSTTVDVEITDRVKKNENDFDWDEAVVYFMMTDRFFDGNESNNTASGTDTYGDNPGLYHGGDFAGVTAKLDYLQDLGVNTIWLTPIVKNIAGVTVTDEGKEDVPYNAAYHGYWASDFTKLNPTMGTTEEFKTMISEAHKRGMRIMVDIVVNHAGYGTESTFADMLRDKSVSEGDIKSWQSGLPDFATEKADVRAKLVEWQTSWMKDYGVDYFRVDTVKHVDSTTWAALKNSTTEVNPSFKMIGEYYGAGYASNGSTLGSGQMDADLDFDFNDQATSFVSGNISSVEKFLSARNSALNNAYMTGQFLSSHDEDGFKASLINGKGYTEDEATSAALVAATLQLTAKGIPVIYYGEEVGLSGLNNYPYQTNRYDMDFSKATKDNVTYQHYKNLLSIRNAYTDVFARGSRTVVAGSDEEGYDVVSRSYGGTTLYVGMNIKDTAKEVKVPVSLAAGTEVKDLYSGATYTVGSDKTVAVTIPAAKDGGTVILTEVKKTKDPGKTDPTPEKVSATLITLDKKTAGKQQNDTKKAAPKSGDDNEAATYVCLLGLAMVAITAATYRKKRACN

## OC[C@H]1O[C@H](O[C@H]2[C@H](O)[C@@H](O)[C@@H](O[C@H]3[C@H](O)[C@@H](O)[C@@H](O[C@H]4[C@H](O)[C@@H](O)[C@@H](O[C@H]5[C@H](O)[C@@H](O)[C@@H](O[C@H]6[C@H](O)[C@@H](O)[C@@H](O[C@H]7[C@H](O)[C@@H](O)C(O)O[C@@H]7CO)O[C@@H]6CO)O[C@@H]5CO)O[C@@H]4CO)O[C@@H]3CO)O[C@@H]2CO)[C@H](O)[C@@H](O)[C@@H]1O (some centres unmarked) [maltoheptaose]
Amy13K ΔCBMa-e
  isothermal titration calorimetry of hydrolysis: The catalytic efficiency of the WT and ΔCBMa-e on maltoheptaose are
Amy13K WT
  isothermal titration calorimetry of hydrolysis: The catalytic efficiency of the WT and ΔCBMa-e on maltoheptaose are
